From paper PMC6934184, “Selective DNA-PKcs inhibition extends the therapeutic index of localized radiotherapy and chemotherapy” (The Journal of Clinical Investigation, 2019)

Target: T1, SLK (Homo sapiens, UniProt Q9H2G2)
T1 construct: purchased Thermo Fisher Scientific (Life Technologies) SelectScreen
Test: SelectScreen LanthaScreen
Type: binding
Conditions: read-out: % displacement
Method in brief: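 Percent values come from Thermo SelectScreen profiling of NU5455, combining activity and binding assays. CSF1R was run in Z'LYTE format at Km app ATP, and CAMK1 in Adapta format with ATP listed at 10.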

T1 sequence (Q9H2G2 whole entry): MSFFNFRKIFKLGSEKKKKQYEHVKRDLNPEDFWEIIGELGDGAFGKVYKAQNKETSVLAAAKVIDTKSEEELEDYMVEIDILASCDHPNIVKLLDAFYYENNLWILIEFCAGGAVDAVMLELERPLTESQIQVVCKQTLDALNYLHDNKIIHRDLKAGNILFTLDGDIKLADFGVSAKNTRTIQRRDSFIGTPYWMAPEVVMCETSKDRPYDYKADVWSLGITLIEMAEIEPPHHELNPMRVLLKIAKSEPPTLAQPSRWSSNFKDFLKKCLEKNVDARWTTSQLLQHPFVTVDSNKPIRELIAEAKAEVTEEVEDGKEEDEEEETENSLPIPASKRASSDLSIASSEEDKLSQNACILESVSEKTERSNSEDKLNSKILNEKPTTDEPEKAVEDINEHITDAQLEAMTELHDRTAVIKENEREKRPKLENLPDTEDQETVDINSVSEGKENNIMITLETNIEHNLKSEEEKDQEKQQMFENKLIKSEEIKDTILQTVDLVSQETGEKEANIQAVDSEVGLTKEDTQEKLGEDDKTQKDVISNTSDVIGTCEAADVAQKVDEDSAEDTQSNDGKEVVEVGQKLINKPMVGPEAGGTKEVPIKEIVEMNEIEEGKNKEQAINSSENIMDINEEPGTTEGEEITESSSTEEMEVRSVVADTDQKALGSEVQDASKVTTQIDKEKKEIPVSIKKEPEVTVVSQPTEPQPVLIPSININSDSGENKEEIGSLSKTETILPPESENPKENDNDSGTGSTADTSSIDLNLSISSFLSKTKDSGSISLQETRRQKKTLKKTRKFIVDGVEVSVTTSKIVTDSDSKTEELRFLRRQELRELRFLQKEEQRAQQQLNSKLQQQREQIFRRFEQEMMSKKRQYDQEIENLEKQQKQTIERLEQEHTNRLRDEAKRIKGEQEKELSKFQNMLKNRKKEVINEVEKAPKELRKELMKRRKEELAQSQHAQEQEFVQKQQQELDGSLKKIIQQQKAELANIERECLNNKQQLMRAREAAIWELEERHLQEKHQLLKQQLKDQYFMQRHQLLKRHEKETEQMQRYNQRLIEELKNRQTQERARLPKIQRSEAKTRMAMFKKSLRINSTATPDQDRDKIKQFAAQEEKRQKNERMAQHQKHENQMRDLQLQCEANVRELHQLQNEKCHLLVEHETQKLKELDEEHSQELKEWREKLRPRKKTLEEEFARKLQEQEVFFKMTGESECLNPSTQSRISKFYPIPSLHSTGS

CN(C(=O)CN1CCOCC1)c1ccc2sc3c(-c4cccc5c(=O)cc(N6CC7CCC(C6)O7)oc45)cccc3c2c1 [NU5455] gave an inhibition at 1 µM of 1.5%.
